From PubChem BioAssay AID602267 (Broad Institute, 2012)
Active and inactive are the calls of the source.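 The calls were made as follows: active = signal falls with dose and the fitted half-maximal concentration is at or below twice the top valid tested dose; inconclusive = flat curve with 30 to 70% inhibition, or poor fit; inactive = wrong direction, flat within 30%, or potency beyond limit.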

Target: Golgi-associated PDZ and coiled-coil motif-containing protein (Homo sapiens) (UniProt Q9HD26)
Experiment: CAL PDZ domain peptide-binding inhibitors, dose response, biochemical, fluorescence polarization, untagged CAL PDZ, cherry-pick (AID 602267)
Conditions: purified CAL PDZ, TMR-peptide fluorescence polarization, 1 h

| Compound | activity change, negative = inhibition (at 50 µM (top of the series)) | also measured |
| --- | --- | --- |
| O=C(CSc1nc2c(sc3ccccc32)c(=O)n1Cc1ccccc1)NCC1CCCO1 (stereo not given) | inactive |  |
| Cc1cc(C)c2nc(-c3ccncc3)cc(C(=O)N3CCN(Cc4ccccc4Cl)CC3)c2c1 | inactive |  |
| COc1cc(Br)c(C(=O)c2nccc3cc(OC)c(OC)cc23)cc1OC | inactive |  |
| Cc1nn(C)c(C)c1S(=O)(=O)N1CCC(CO)(CC2CCCCO2)CC1 (stereo not given) | inactive |  |
| O=C(Nc1ccc([N+](=O)[O-])cc1)Nc1cnccn1 | inactive |  |
| Cn1c(=O)c2c(nc(-c3ccc(N(CCCl)CCCl)cc3)n2C)n(C)c1=O | inactive |  |
| COc1ccc2noc3c2c1C(=O)c1ccccc1-3 |  | AC50: 1.78 µM |
| O=C(COc1ccc(Cl)cc1Cl)Nc1nnc(C2=COCCO2)o1 | inactive |  |
| O=C(NNS(=O)(=O)c1ccc(Cl)cc1)c1cccs1 | inactive |  |
| CN(C)C1(CNC(=O)C2CCC(=O)N(CCc3ccc(Cl)cc3)C2)CCCCC1 (stereo not given) | inactive |  |
| Cc1c(Cl)c(C(F)(F)F)nn1CC(=O)NCc1ccco1 | inactive |  |
| Cc1ccc(S(=O)(=O)N2CCN(C(=O)c3ccccn3)CC2)cc1 | inactive |  |
| COc1ccc(S(=O)(=O)N2CCOCC2)cc1NC(=O)CN1CCCCCC1 | inactive |  |
| Cc1ccc(CN(Cc2cccnc2)C(=S)Nc2cccc(Cl)c2C)cc1 | inactive |  |
| Cc1ccc2nc(-c3cccc(Br)c3)cc(C(=O)NC3=NCCS3)c2c1 | inactive |  |
| Cc1cccc(C(=O)Nc2ccc(C(=O)/C=C/c3ccncc3)cc2)c1 | inactive |  |
| Cc1cc(C)c(S(=O)(=O)NCc2ccc3c(c2)OCO3)c(C)c1 | inactive |  |
| C/C(CC(=O)Nc1ccc(C)c(Cl)c1)=N\NC(=O)Cc1cnc(N)s1 | inactive |  |
| c1ccc(C(c2ccccc2)c2cccnc2)cc1 | inactive |  |
| Cc1c(C)c2cc3c4c(oc3c(C)c2oc1=O)CCCC4 | inactive |  |
| Cc1cc(C)nc(/N=C(\N)N2CCc3ccccc32)n1 | inactive |  |
| CC(C)(C)c1nn(-c2ccccc2)c2[nH]c(=O)c(C=O)cc12 | inactive |  |
| Cc1ccc(NC(=O)CN(C)CC(=O)Nc2cccc(F)c2)cc1S(=O)(=O)N1CCCCCC1 | inactive |  |
| Cc1ccc(-n2c(SCC(N)=O)nnc2-c2ccco2)cc1 | inactive |  |

| Compound | activity change, negative = inhibition (at 50 µM (top of the series)) | also measured |
| --- | --- | --- |
| COc1cc([N+](=O)[O-])ccc1NC(=O)CN1CCN(C(=O)c2ccco2)CC1 | inactive |  |
| O=C(NC1(C(F)(F)F)NC(=O)N(C2CCCCC2)C1=O)C1CC1 (stereo not given) | inactive |  |
| COc1ccc(OC)c(NC(=O)c2ccc(OC3CSC3)cc2)c1 | inactive |  |
| FC(F)(F)c1cc(-c2cccs2)nc2ncnn12 | inactive |  |
| CC(=Nc1ccccc1O)c1sc2ccccc2c1O | inactive |  |
| O=C(OCc1ccc(Br)cc1)c1cccnc1 | inactive |  |
| CC(=O)NC(Cc1ccccc1)C(C)=O (stereo not given) | inactive |  |
| CCN(CCCn1c(=S)[nH]c2ccc(N3CCOCC3)cc2c1=O)c1ccccc1 | inactive |  |
| CN(C)/N=C1\CCS(=O)(=O)c2sccc21 | inactive |  |
| Cc1ccc2nc(NC(=O)COC(=O)c3ccncc3)sc2c1 | inactive |  |
| Cc1ccc(S(=O)(=O)N2CCN(C(=O)c3cc(=O)c4ccccc4o3)CC2)cc1 | inactive |  |
| O=C(CNCc1ccccc1)Nc1ccc(F)cc1 | inactive |  |
| Nc1nc2ccccc2cc1S(=O)(=O)c1ccccc1 | inactive |  |
| O=C(CCC(=O)N1CCN(c2ccccc2F)CC1)N1CCN(c2ccccc2)CC1 | inactive |  |
| COc1ccc2ccn(S(=O)(=O)c3ccccc3)c2c1 | inactive |  |
| Cc1nc(N)c(CC(Br)CBr)c(Cl)n1 (stereo not given) | inactive |  |
| Cn1c(CNC(=O)OC(C)(C)C)n[nH]c1=S | inactive |  |
| Cc1cccc(C(=O)Nc2nnc(COc3ccccc3)s2)c1 | inactive |  |
| C[n+]1ccc(C(=O)Nc2ccccc2Cl)cc1 | inactive |  |
| O=C(Nc1nccs1)c1ccc(F)c(S(=O)(=O)N2CCOCC2)c1 | inactive |  |
| c1ccc(C2Nc3ccccc3Oc3ccccc32)cc1 (stereo not given) |  | activity change, negative = inhibition (at 16 µM (top of the series)): inactive |
| CCN(CC)S(=O)(=O)c1ccc2nc(NC(=O)c3ccco3)sc2c1 | inactive |  |
| CC(=O)N1N=C(c2ccccc2)CC1c1ccccc1 (stereo not given) | inactive |  |
| CC1CCCCC1NCC(=O)NCc1ccc(F)cc1 (stereo not given) | inactive |  |

| Compound | activity change, negative = inhibition (at 50 µM (top of the series)) | also measured |
| --- | --- | --- |
| CC1CCN(CCCNC(=O)c2ccc3c(=O)n(Cc4ccc(Cl)cc4)c(=S)[nH]c3c2)CC1 | inactive |  |
| O=C(C=Cc1ccccc1)c1cc(Br)ccc1O | inactive |  |
| CSc1ccccc1NC(=O)c1ccccc1 | inactive |  |
| O=C(c1ccc([N+](=O)[O-])cc1)N1CCC(Cc2ccccc2)CC1 | inactive |  |
| Cc1ccc(CN2CCN(Cc3nc4ccccc4nc3C)CC2CCO)cc1 (stereo not given) | inactive |  |
| CC1(C2CC2)NC(=O)N(CC(=O)NCC(=O)Nc2ccc(F)c(F)c2F)C1=O (stereo not given) | inactive |  |
| CCOc1ccc(S(=O)(=O)N2CCCCC2)c(C)c1C | inactive |  |
| Cc1ccc2nc3c(nc2c1)-c1ccccc1C3=O | inactive |  |
| COc1ccc(CNCCc2c[nH]c3ccccc23)c(OC)c1OC | inactive |  |
| CCN(CC)S(=O)(=O)c1ccc(/C=C/C(=O)OCC(=O)N(C)C)cc1 | inactive |  |
| COc1ccc(C(=O)N2CCCc3ccccc32)cc1Br | inactive |  |
| NC(=O)C1CCN(c2ncccc2[N+](=O)[O-])CC1 | inactive |  |
| Cc1ccc(CN(C(=O)c2ccco2)C(C(=O)NC2CCCC2)c2cccnc2)cc1 (stereo not given) | inactive |  |
| CCOC(=O)C1(CCOc2ccccc2)CCN(CC(O)CO)CC1 (stereo not given) | inactive |  |
| O=C1CSC(=Nc2ccccc2Cl)N1 | inactive |  |
| O=C(c1cc(Br)ccc1Cl)N1CCN(c2ccccn2)CC1 | inactive |  |
| COCC(=O)Nc1ccc2nc3n(c(=O)c2c1)CCCCC3 | inactive |  |
| C=CCNC(=S)Nc1ccc(C)c(S(=O)(=O)N2CCCCC2)c1 | inactive |  |
| COc1ccc(-n2c(=S)[nH]c3c(sc(=S)n3-c3ccccc3)c2=O)c(OC)c1 | inactive |  |
| CSC1=NP(=S)(SC)N2CCCC2=C1C#N (stereo not given) | inactive |  |
| C=CCOC(=O)C1=C(C)Nc2nc3ccccc3n2C1c1ccncc1 (stereo not given) | inactive |  |
| S=C(NCCc1ccccc1)NC1CCC(NC(=S)NCCc2ccccc2)CC1 (stereo not given) | inactive |  |
| O=C(NNC(=O)c1ccc(Cl)c(Cl)c1)c1cccnc1 | inactive |  |
| COc1ccc(CN(C)C(C)C(=O)NC2CCCc3ccccc32)cc1 (stereo not given) | inactive |  |

| Compound | activity change, negative = inhibition (at 50 µM (top of the series)) | also measured |
| --- | --- | --- |
| CCC(C(=O)NN1C(=O)c2ccccc2C1=O)c1ccccc1 (stereo not given) | inactive |  |
| O=C(NCCc1cnc[nH]1)c1cccs1 | inactive |  |
| CS(=O)(=O)c1ccc2nc(NC(=O)CN3C(=O)C4CC=CCC4C3=O)sc2c1 (stereo not given) | inactive |  |
| Cc1ccc2nc(NS(C)(=O)=O)sc2c1 | inactive |  |
| CN(C)S(=O)(=O)c1ccc(Cl)c(NC(=O)CSc2nnnn2-c2ccc(O)cc2)c1 | inactive |  |
| Cc1ccccc1CN(C)C(C)C(=O)Nc1ccccc1F (stereo not given) | inactive |  |
| COc1ccc(OC)c(-c2c3cc(O)c(=O)cc-3oc3cc(O)c(O)cc23)c1 |  | AC50: 21.4 µM |
| Cc1cc(NC(=O)CSc2nnc(-c3ccccc3)c(-c3ccccc3)n2)no1 | inactive |  |
| O=C(NC1CCCN(Cc2ccc(Cl)cc2)C1)c1cccc(N2CCCC2=O)c1 (stereo not given) | inactive |  |
| Cn1c(=O)c2c(nc(SCC(=O)NCC3CCCO3)n2Cc2ccc(F)cc2)n(C)c1=O (stereo not given) | inactive |  |
| COc1ccc(S(=O)(=O)Nc2cc(SCC(=O)O)c(O)c3ccccc23)cc1 |  | AC50: 34.2 µM |
| FC(F)(F)Oc1ccc(NC(=S)NCCCN2CCOCC2)cc1 | inactive |  |
| C/C(=N\NC(=O)C(O)c1ccccc1)c1ccc(Cl)s1 (stereo not given) | inactive |  |
| CC1CCN(c2nc3c(c(=O)n(C)c(=O)n3C)n2CCSc2nc3ccccc3s2)CC1 |  | activity change, negative = inhibition (at 16 µM (top of the series)): inactive |
| CC(C)OC(=O)C1CC(C)(O)C(=O)C(C(=O)OC(C)C)C1c1ccc([N+](=O)[O-])cc1 (stereo not given) | inactive |  |
| CCOc1ccccc1CN1CCC(n2nccc2NC(=O)C2CCCC2)CC1 | inactive |  |
| Cc1ccc(C(=O)Nc2ccccc2)cc1S(=O)(=O)N1CCN(C)CC1 | inactive |  |
| COc1ccc(C(C)=O)cc1COC(=O)CNC(=O)c1ccccc1F | inactive |  |
| CN=c1scc(C)n1/N=C/c1cc(Br)c(O)c(Br)c1 | inactive |  |
| CN(C)c1ccc(P(=O)(OC2CCCCC2)C(O)c2cccnc2)cc1 (stereo not given) | inactive |  |
| COc1ccc(CCn2c(=S)[nH]c3ccc(N4CCOCC4)cc3c2=O)cc1OC | inactive |  |
| COc1ccc(NC(=O)c2cnn(-c3ccccc3)c2C)c(OC)c1 | inactive |  |
| COCCCNC(=O)c1c[nH]c2ccc(S(=O)(=O)N3CCC(C)CC3)cc2c1=O |  | activity change, negative = inhibition (at 16 µM (top of the series)): inactive |
